{"source": "paper PMC4432228", "about": "“Tight regulation of the unfolded protein sensor Ire1 by its intramolecularly antagonizing subdomain” (Journal of Cell Science, 2015)", "tested_on": "MBP–CSSR (core stress-sensing region of yeast Ire1)", "assay": "In vitro competition assay for peptide binding to the CSSR (fluorescence anisotropy of ΔEspP–FAM)", "set-up": "species or system Saccharomyces cerevisiae", "conditions": "Fig. 6C", "method": "Fig. 6. Two-hybrid and in vitro interaction of the CSSR with various peptides. (A,B) A yeast two-hybrid analysis was performed using the CSSR and its mutants as prey. The Subregion I 60-amino-acid portion (Sub-I), Segment 4 (Seg4; six tandem repeat), GGGSS (12 tandem repeat), Segments 1–3 (Segs1–3; amino acids 32–61 of yeast Ire1; two tandem repeat), Segments 4–6 (Segs4–6; amino acids 62–91 of yeast Ire1; two tandem repeat), the NUCR of human or mouse PERK (hPERK or mPERK), the Top2 IDR (Top2; two tandem repeat) and the San1 IDR (San1) were used as bait. Tester cell cultures were serially diluted tenfold, spotted on agar plates, incubated for 2–4 days and photographed. WT, wild type. (C) A fluorescently labeled peptide DEspP–FAM (10 µM final concentration) was mixed with MBP–CSSR (5 µM final concentration) and a competitor peptide [Segment (Seg) 2–6] and measured for fluorescence anisotropy. The resulting values from triplicate assays (mean±s.d.) are normalized to that for the no competitor peptide condition.\nNext, we performed an in vitro competition assay to monitor the affinity of the Subregion I segments for the CSSR. A recombinant CSSR protein tagged with the maltose-binding protein (MBP–CSSR) was expressed in Escherichia coli and purified with amylose resin ([Kimata et al., 2007]). […]", "data": [{"substance": "Segment 4: Untagged competitor peptide NH2-KKKA-[10 amino acids of Segment 4 of yeast Ire1 Subregion I]-AAKKKK-COOH (H-KKKAIPAPRTTEGLAAKKKK-OH)", "values": [{"measurement": "Affinity of capture by the CSSR relative to other Subregion I segments", "setting": "in vitro competition analysis", "result": "higher affinity than for other segments"}, {"measurement": "Reduction of ΔEspP–FAM fluorescence anisotropy by competitor peptide (reduced association between ΔEspP–FAM and MBP–CSSR)", "setting": "ΔEspP–FAM 10 µM, MBP–CSSR 5 µM, elution buffer A (50 mM HEPES pH 8.0), 30 min incubation, 25°C, triplicate assays, normalized to no competitor", "result": "more effectively than the other segments did"}]}]}
